“Also recorded” adds a separate entry of the source. Where two headings read alike, the source gives them in different places.
Legend:
[1] = Moisture sorption analysis; type: physicochemical; conditions: for XRPD after Moisture Sorption: solid remaining after moisture sorption analysis; for Moisture Sorption: weight lost upon desorption: between 95% and 5% RH
[2] = type: physicochemical
Method: Amorphous samples were exposed to ambient, 53%, and 97% relative humidities at ambient temperature (about 10° C. to about 30° C.). The samples were also exposed to 75% relative humidity at 40° C. The samples were stressed for up to 60 days. Samples were taken periodically throughout the study and analyzed by x-ray powder diffraction (XRPD) for presence of crystallinity.
Relative humidity stress studies were performed to assess the stability of amorphous alvimopan and solid dispersions. Studies were performed at ambient, 53%, and 97% relative humidity at ambient temperature. Ambient relative humidity and temperature was measured as approximately 24% and 22° C. Samples were also stressed at 75% relative humidity at 40° C. Samples were analyzed by XRPD for the presence of crystallinity.

[3] = Conversion of amorphous form to crystalline dihydrate form (background statement); type: physicochemical
Description: [[2(S)-[[4(R)-(3-hydroxyphenyl)-3(R),4-dimethyl-piperidinyl]methyl]-1-oxo-3-phenylpropyl]amino]acetic acid may exist in different crystalline forms, including hydrate forms, solvate forms and anhydrous form, and as an amorphous material. Above a relative humidity of about 15%, it exists in its crystalline dihydrate form. Below a relative humidity of about 15%, it exists in its anhydrous form. Amorphous [[2(S)-[[4(R)-(3-hydroxyphenyl)-3(R),4-dimethyl-piperidinyl]methyl]-1-oxo-3-phenylpropyl]amino]acetic acid is hygroscopic and converts to its crystalline dihydrate form when it is stressed, for example, at 54% relative humidity for 12 days or 75% relative humidity in the temperature range of about 40° C. to about 80° C. for three days. Under ambient conditions, amorphous [[2(S)-[[4(R)-(3-hydroxyphenyl)-3(R),4-dimethyl-piperidinyl]methyl]-1-oxo-3-phenylpropyl]amino]acetic acid completely converts to its crystalline dihydrate form after 66 days.

[4] = Intrinsic dissolution experiments (Woods apparatus); type: physicochemical; conditions: approximately 37° C., 75 rpm, 900 mL medium, value (SD)
Method: Intrinsic dissolution experiments were conducted in a VanKel VK7010 dissolution apparatus equipped with a VK750A heater/circulator. An intrinsic dissolution apparatus (Woods apparatus) and hydraulic press were used to press samples of approximately 200 mg at approximately 1000 psi for 1 minute, giving a sample surface of 0.50 cm^2. Experiments were conducted in media of pH=1.2 HCl solution and pH =4.5 phosphate solution. 900 mL of medium was used for each experiment and the medium was maintained at approximately 37° C. The apparatus was rotated at 75 rpm. The Cary 50 UV/Vis spectrophotometer was utilized to sample automatically throughout the duration of the experiments.
Samples were analyzed with a Cary 50 UV-VIS double-beam spectrophotometer, and were analyzed in 1.000-cm quartz cuvettes at a wavelength of 271 nm. The detector was zeroed with a cuvette filled with dissolution medium prior to sample analysis. Wavelength calibration was performed using holmium oxide. The photometric accuracy was verified by measuring the intensity of the light at the detector when filters of known optical density were placed in the path of the beam.

[5] = Solubility in water (statement); type: physicochemical; conditions: statement in words, dihydrate
[6] = Bioavailability (statement); type: in vivo; conditions: statement in words, dihydrate
[7] = listed as Amorphous [[2(S)-[[4(R)-(3-hydroxyphenyl)-3(R),4-dimethyl-piperidinyl]methyl]-1-, sodium salt
[8] = ambient conditions (approximately 24% relative humidity and 22° C.), 43 days stressed
[9] = 53% Relative Humidity and Ambient Temperature, 7 days stressed
[10] = 53% Relative Humidity and Ambient Temperature, 17 days stressed
[11] = 53% Relative Humidity and Ambient Temperature, 30 days stressed
[12] = 53% Relative Humidity and Ambient Temperature, 60 days stressed
[13] = 97% Relative Humidity and Ambient Temperature, 7 days stressed
[14] = ambient conditions (approximately 24% relative humidity and 22° C.), 7 days stressed
[15] = ambient conditions (approximately 24% relative humidity and 22° C.), 17 days stressed
[16] = ambient conditions (approximately 24% relative humidity and 22° C.), 30 days stressed
[17] = listed as Amorphous Alvimopan Prepared by Rotary Evaporation
[18] = listed as rotary evaporated sample
[19] = 75% Relative Humidity and 40° C., 7 days stressed
[20] = ambient conditions (approximately 24% relative humidity and 22° C.), 60 days stressed
[21] = listed as Amorphous [[2(S)-[[4(R)-(3-hydroxyphenyl)-3(R),4-dimethyl-piperidinyl]methyl]-1-

## C[C@H]1CN(C[C@H](Cc2ccccc2)C(=O)NCC(=O)[O-])CC[C@@]1(C)c1cccc(O)c1.[Na+] [2:1 sodium carbonate attempt; lyophilized; 100° C. vac oven] [[[2(S)-[[4(R)-(3-hydroxyphenyl)-3(R),4-dimethyl-piperidinyl]methyl]-1-oxo-3-phenylpropyl]amino]acetic acid sodium salt]
[1]; [7]
  Moisture Sorption: lost upon equilibration at 5% RH: 0.1% lost upon equilibration at 5% RH
  XRPD after Moisture Sorption: deliquescence of the material; also recorded: sample deliquesced
[2]; 53% Relative Humidity and Ambient Temperature, 13 days stressed
  XRPD Result: amorphous
[2]; 53% Relative Humidity and Ambient Temperature, 43 days stressed
  XRPD Result: amorphous
[2]; 75% Relative Humidity and 40° C., 3 days stressed, sodium salt
  Observation: deliquescence;
[2]; 97% relative humidity and ambient temperature, listed as 2:1 amorphous [[2(S)-[[4(R)-(3-hydroxyphenyl)-3(R),4-dimethyl-piperidinyl]methyl, sodium salt
  Outcome of stress: deliquesced within three days of exposure
[2]; ambient conditions (approximately 24% relative humidity and 22° C.), 7 days stressed, sodium salt
  Observation: off-white, yellow
[2]; ambient conditions (approximately 24% relative humidity and 22° C.), 13 days stressed
  XRPD Result: amorphous + peak
[2]; ambient conditions (approximately 24% relative humidity and 22° C.), 30 days stressed, sodium salt
  XRPD Result: amorphous + peak;
[2]; [8]
  Observation: white and yellow
  XRPD Result: amorphous + peak

## C[C@H]1CN(C[C@H](Cc2ccccc2)C(=O)NCC(=O)[O-])CC[C@@]1(C)c1cccc(O)c1.[Na+] [[[2(S)-[[4(R)-(3-hydroxyphenyl)-3(R),4-dimethyl-piperidinyl]methyl]-1-oxo-3-phenylpropyl]amino]acetic acid sodium salt]
[1]
  Moisture Sorption: lost upon equilibration at 5% RH: 2.8% lost upon equilibration at 5% RH
[1]; [7]
  XRPD after Moisture Sorption: peak + amorphous
[2]; [9]
  XRPD Result: amorphous + peak
[2]; [10]
  XRPD Result: amorphous + peak
[2]; [11]
  XRPD Result: amorphous + peak
[2]; [12]
  XRPD Result: amorphous + peak
[2]; 75% RH and 40° C.
  Outcome of stress: deliquesced after three days of exposure
[2]; [13]
  Observation: white solids; slight
  XRPD Result: Form A
[2]; 97% relative humidity and ambient temperature
  Outcome of stress: likely crystallized to Form A
[2]; [14]
  XRPD Result: amorphous + peak
[2]; [15]
  Observation: off-white, yellow
  XRPD Result: amorphous + peak
[2]; [16]
  Observation: off-white, yellow
  XRPD Result: amorphous + peak

## C[C@H]1CN(C[C@H](Cc2ccccc2)C(=O)NCC(=O)O)CC[C@@]1(C)c1cccc(O)c1 [amorphous preparation, [[2(S)-[[4(R)-(3-hydroxyphenyl)-3(R),4-dimethyl-piperidinyl]methyl]-1-oxo-3-phenylpropyl]amino]acetic acid]
[3]; 54% relative humidity
  time stressed after which amorphous form converts to its crystalline dihydrate form: 12 days
[3]; 75% relative humidity, about 40° C. to about 80° C.
  time stressed after which amorphous form converts to its crystalline dihydrate form: three days
[3]; ambient conditions
  time after which amorphous form completely converts to its crystalline dihydrate form: 66 days
[2]
  Stability conclusion of the stress studies: stable under stress conditions except at 97% relative humidity
[4]
  Intrinsic Dissolution Rate, mg/min/cm^2 (SD), pH 1.2 HCl: 0.217 (0.017) mg/min/cm^2

## C[C@H]1CN(C[C@H](Cc2ccccc2)C(=O)NCC(=O)O)CC[C@@]1(C)c1cccc(O)c1 [crystalline alvimopan, [[2(S)-[[4(R)-(3-hydroxyphenyl)-3(R),4-dimethyl-1-piperidinyl]methyl]-1-oxo-3-phenylpropyl]amino]acetic acid dihydrate]
[5]; listed as Alvimopan
  solubility in water: extremely low solubility in water
[5]; listed as alvimopan
  solubility in water: lower solubility in water than amorphous
[5]; listed as compound of formula (II)
  solubility in water: low solubility in water except at low or high pH conditions
[6]; listed as Alvimopan
  bioavailability: poor oral bioavailability
[6]; listed as alvimopan
  bioavailability: lower bioavailability than the amorphous form
[4]
  Intrinsic Dissolution Rate, mg/min/cm^2 (SD), pH 1.2 HCl: 0.148 (0.025) mg/min/cm^2

## C[C@H]1CN(C[C@H](Cc2ccccc2)C(=O)NCC(=O)O)CC[C@@]1(C)c1cccc(O)c1 [ethanol roto evap at 30° C.; 100° C. vac oven] [[[2(S)-[[4(R)-(3-hydroxyphenyl)-3(R),4-dimethyl-piperidinyl]methyl]-1-oxo-3-phenylpropyl]amino]acetic acid]
[1]; [17]
  Moisture Sorption: weight gain between 5% and 95% RH: 13.8% weight gain between 5% and 95% RH
  Moisture Sorption: weight lost upon desorption: 12.2% weight lost upon desorption
  Moisture Sorption: lost upon equilibration at 5% RH: 0.6% lost upon equilibration at 5% RH
  XRPD after Moisture Sorption: low crystalline; amorphous, Form A, or Form B
[1]; [18]
  Moisture Sorption: weight gain between 5% and 95% RH: ~13%
  XRPD after Moisture Sorption: crystallized to low crystalline material
[2]
  Stability conclusion of the stress studies: showed crystallization under this same stress condition
[2]; [9]
  XRPD Result: amorphous
[2]; [10]
  XRPD Result: amorphous
[2]; [11]
  XRPD Result: amorphous
[2]; [12]
  Observation: white solids,
  XRPD Result: amorphous
[2]; 75% RH and 40° C., listed as Amorphous [[2(S)-[[4(R)-(3-hydroxyphenyl)-3(R),4-dimethyl-piperidinyl]methyl]-1-
  Outcome of stress: crystallized to alvimopan Form A
[2]; [19]
  Observation: white solids;
  XRPD Result: PC; Form A
[2]; [13]
  Observation: white solids; some
  XRPD Result: Form A
[2]; [14]
  XRPD Result: amorphous
[2]; [15]
  XRPD Result: amorphous
[2]; [16]
  Observation: white solids, flakes;
  XRPD Result: amorphous
[2]; [20]
  XRPD Result: amorphous

## C[C@H]1CN(C[C@H](Cc2ccccc2)C(=O)NCC(=O)O)CC[C@@]1(C)c1cccc(O)c1 [lyophilized; 100° C. vac oven, [[2(S)-[[4(R)-(3-hydroxyphenyl)-3(R),4-dimethyl-piperidinyl]methyl]-1-oxo-3-phenylpropyl]amino]acetic acid]
[1]; [21]
  Moisture Sorption: weight gain between 5% and 95% RH: 13.0% weight gain between 5% and 95% RH
  Moisture Sorption: weight lost upon desorption: 10.8% weight lost upon desorption
  Moisture Sorption: lost upon equilibration at 5% RH: 0.2% lost upon equilibration at 5% RH
  XRPD after Moisture Sorption: amorphous
[1]; listed as lyophilized sample
  Moisture Sorption: weight gain between 5% and 95% RH: ~13%
  XRPD after Moisture Sorption: remained amorphous
[2]
  Stability conclusion of the stress studies: stable at 75% relative humidity and 40 °C
[2]; [9]
  XRPD Result: amorphous
[2]; [10]
  XRPD Result: amorphous
[2]; [11]
  XRPD Result: amorphous
[2]; [12]
  XRPD Result: amorphous
[2]; 75% RH and 40° C., listed as amorphous alvimopan sample prepared by lyophilization
  Outcome of stress: Crystallization was not observed
[2]; [19]
  XRPD Result: amorphous
[2]; 75% Relative Humidity and 40° C., 17 days stressed
  XRPD Result: amorphous
[2]; 75% Relative Humidity and 40° C., 30 days stressed
  XRPD Result: amorphous
[2]; 75% Relative Humidity and 40° C., 60 days stressed
  XRPD Result: amorphous
[2]; [13]
  Observation: off-white solids; some
  XRPD Result: Form A
[2]; [14]
  XRPD Result: amorphous
[2]; [15]
  XRPD Result: amorphous
[2]; [16]
  XRPD Result: amorphous
[2]; [20]
  XRPD Result: amorphous
